Reference: patent US20060154892A1, “Procedure to block the replication of reverse transcriptase dependent viruses by the use of inhibitors of deoxynucleotides synthesis” (priority 1993, published 2006)
Where two headings read alike, the source gives them in different places.

What was measured:
[1] = target: T1, HIV-1 RT (Human immunodeficiency virus type 1 group M subtype B, UniProt P04585); experiment: Km of HIV-1 RT for dNTP, 600-base globin mRNA template; type: biochemical; conditions: 600-base globin mRNA as template
[2] = target: T1, HIV-1 RT; experiment: in vitro activity of recombinant HIV-1 RT (primer extension assay); type: biochemical; conditions: 200 mM
Description: We also assessed the in vitro activity of recombinant HIV-1 RT at dNTP concentrations that were equivalent to those found in quiescent and stimulated PBL. DNA was synthesized using a globin mRNA template and an oligo dT16 primer (a primer extension assay). The HIV-1 RT reaction mixture contained 50 mM Tris-HCl (pH 8.0), 6 mM MgCl2, 76 mM KCl, 0.5 mM DTT, 80 nM globin mRNA primed with oligo dT16 in 1:5 ratio, and dNTP at (a) the concentrations equivalent to quiescent cells and (b) the concentrations equivalent to stimulated cells as described in Table 1. Recombinant HIV-1 RT (obtained from American Biotechnologies) was used at 5 U/ml.

[3] = tested on: HIV-1 [HTLV-IIIB]; experiment: p24 production in activated PBL infected with HIV-1 [HTLV-IIIB], drugs added after infection; type: cell-based; conditions: for inhibition at 1000 µM: Human immunodeficiency virus 1, IIIB, PBMC
[4] = tested on: HIV-1 strain Ba-L; experiment: p24 production in primary human macrophages infected with HIV-1 Ba-L; type: cell-based; conditions: for inhibition at 1000 µM: Human immunodeficiency virus 1, BAL, Macrophage
Description: Macrophages were obtained by cell adhesion after purification of PBL from healthy donors. After 14 days treatment with granulocyte-macrophage-colony-stimulating factor, cells were infected overnight with the HIV-1 strain Ba-L (Gartner et al., Science 233:215 (1986)). […] Supernatants were harvested ever 4-5 days for p24 analysis and fresh supernatant and drugs were added.
Percentages of HIV-1 inhibition were calculated based on p24 production compared to the untreated control. Drug treatment of macrophages was suspended after 14 days.

[5] = tested on: HIV-1 IIIB; experiment: expected p24 expression in HIV-1 IIIB infected PHA-stimulated PBL with hydroxyurea and/or nucleoside analogs (Example 10); type: cell-based
Description: PBL isolated from healthy donors are stimulated with PHA and IL-2 for 48 hours using standard protocols. At the same time, the cells are pre-treated with hydroxyurea alone or in combination with either ddI or fluorinated derivatives of chain-terminating nucleosides.

[6] = tested on: dNTP pools in PHA stimulated PBL; experiment: dNTP pools in HIV-1 infected PHA-stimulated PBL treated with hydroxyurea (enzyme assay); type: cell-based, human; conditions: 1 mM hydroxyurea
Description: PBLs were cultured in the presence or absence of phytohemagglutinin A (PHA) at 10 μg/ml for 48 hours. Intracellular dNTP were extracted with 60% methanol and were examined by an enzyme assay using synthetic oligonucleotides (P. A. Sherman and A. J. Fyfe, 1989 Anal. Biochem. 180:222). Data represent the mean value of three experiments. […] The cellular volume of PBL was measured using a Coulter counter analizer and found to be approximately 0.25 μl/10^6 cells for quiescent PBL and 0.38 μl/10^6 cells for stimulated PBL, respectively.
Cell aliquots were harvested 24, 48 and 72 hours after infection and analyzed for the rate of dNTP synthesis inhibition (Sherman and Fyfe, supra) measured as the percentage of dNTP levels compared to the control cells.

[7] = cited from earlier work
[8] = tested on: HIV-1
Description: In the latter procedure, we measured p24 production during the course of an in vitro infection to assess the inhibition of HIV-1 replication in activated PBL.

[9] = tested on: primary human macrophages; conditions: for Viable cells: Macrophages
[10] = tested on: HIV-1 IIIB; conditions: for RT Activity: 1 mM hydroxyurea
[11] = tested on: HIV-1; experiment: administration of hydroxyurea to HIV-1 seropositive volunteers, CD4+ T-cell count (Example 9); type: in vivo, human; conditions: 20-40 mg per kg per day, after one month of drug treatment
Description: One or more HIV-1 seropositive volunteers are first identified. Blood samples drawn from the volunteers are assayed for CD4^+T-cells using any suitable quantitation means. Such quantitation means include, but are not limited to, the flow cytometer. Over a period of from several weeks to months, the number of CD4^+T-cells is observed to decrease steadily as an indicator of disease progression.
The nucleoside analogs can be any of ddI, ddC or AZT, or combinations thereof.
When hydroxyurea is used in conjunction with a nucleoside analog, the dosage of the analog is determined according to convention in the medical and pharmaceutical arts.
After one month of drug treatment blood samples are again drawn and assayed for CD4^+T-cells.

[12] = tested on: PBL; experiment: count of viable cells in HIV-1 infected activated PBL culture; type: cell-based, human; conditions: for Viable cells: PBMC, 1 mM Hydroxyurea
[13] = tested on: HIV-1; conditions: for effect on HIV-1 replication at the lowest levels: in some cases, only when used individually, FIG. 3
Description: PBL from healthy donors were infected for 2 hour at 37° C. with HIV-1 [HTLV-IIIB] (m.o.i.=1) after 2 days stimulation with PHA and Interleukin-2 (IL-2). […] Every 3-4 days, supernatant was harvested for p24 analysis, cells were counted and fresh supernatant and drugs were added. Samples were analyzed for (a) p24 production in the supernatant, (b) count of viable cells, and (c) ratios between the values expressed in (a) and (b).
PBL were isolated and stimulated for 2 days with PHA and IL-2. […] The extent of HIV-1 infection was analyzed as described in Example 5. Samples were tested for (a) p24 production in the supernatant, (b) viable cell count.

[14] = tested on: PBL; conditions: doses corresponding to plasma concentrations in treated AIDS patients; cited from earlier work
[15] = nucleoside analog 20 μM, day 12

Structure (SMILES): Cc1cn([C@H]2C[C@H](O)[C@@H](COP(=O)(O)OP(=O)(O)OP(=O)(O)O)O2)c(=O)[nH]c1=O [dTTP]
- Km [1]: 4 µM

Structure (SMILES): Nc1nc2c(ncn2[C@H]2C[C@H](O)[C@@H](COP(=O)(O)OP(=O)(O)OP(=O)(O)O)O2)c(=O)[nH]1 [dGTP]
- Km [1]: 3.9 µM

Structure (SMILES): NC(=O)NO [hydroxyurea]
- direct inhibition of RT enzymatic activity [2]: did not directly inhibit RT enzymatic activity
- inhibition at 1000 µM ([3]; 96 h): 100%
- inhibition at 1000 µM ([3]; 168 h): 100%
- inhibition at 1000 µM ([3]; 240 h): 100%
- inhibition at 1000 µM ([3]; 336 h): 100%
- HIV-1 replication ([3]; continuous treatment with 1 mM hydroxyurea, activated PBL): completely blocked HIV-1 replication
- antiviral effect, p24 normalized to number of viable cells ([3]; low concentrations, FIG. 1c): not mediated by cytotoxicity
- HIV-1 replication (p24 in supernatant) ([3]; used alone at low concentrations, FIG. 1a): inhibited in a dose-dependent manner
- inhibition at 1000 µM ([4]; 96 h): 100%
- inhibition at 1000 µM ([4]; 168 h): 100%
- inhibition at 1000 µM ([4]; 240 h): 100%
- inhibition at 1000 µM ([4]; 336 h): 100%
- HIV-1 replication ([4]; continuous treatment with 1 mM hydroxyurea, macrophages): completely blocked HIV-1 replication
- block of HIV-1 replication ([4]; hydroxyurea as low as 0.05 mM, macrophages): > 99.9%
- HIV-1 replication after discontinuing the drug treatment ([4]; infected macrophages, several weeks after discontinuing, in some experiments): absence of HIV-1 replication
- dose-dependent inhibition of HIV-1 production in macrophages compared with PBL ([4]; same donor for PBL and macrophages): consistently more potent than with primary PBL
- p24 Expression after Infection ([5]; HU 50 μM, day 4): Low
- p24 Expression after Infection ([5]; HU 50 μM, day 8): Medium
- p24 Expression after Infection ([5]; HU 50 μM, day 12): High
- dNTP pools in stimulated PBL [6]: substantially depleted
- blood concentration during standard clinical protocols ([7]; humans): ~1 mM
- absorption ([7]; oral ingestion): readily absorbed after oral ingestion
- p24 after infection ([8]; HU 10 μM, day 4): 4 ng/mL
- p24 after infection ([8]; HU 10 μM, day 8): 100 ng/mL
- p24 after infection ([8]; HU 10 μM, day 12): 204 ng/mL
- p24 after infection ([8]; HU 50 μM, day 4): 3 ng/mL
- p24 after infection ([8]; HU 50 μM, day 8): 113 ng/mL
- p24 after infection ([8]; HU 50 μM, day 12): 148 ng/mL
- p24 after infection ([8]; HU 100 μM, day 4): 2 ng/mL
- p24 after infection ([8]; HU 100 μM, day 8): 111 ng/mL
- p24 after infection ([8]; HU 100 μM, day 12): 116 ng/mL
- cytotoxic effects [9]: no cytotoxic effects were observed
- Viable cells ([9]; 1 mM Hydroxyurea, day 4): 300 thousands/cm^2
- Viable cells ([9]; 1 mM Hydroxyurea, day 7): 280 thousands/cm^2
- Viable cells ([9]; 1 mM Hydroxyurea, day 10): 270 thousands/cm^2
- Viable cells ([9]; 1 mM Hydroxyurea, day 14): 270 thousands/cm^2
- Viable cells ([9]; day 21, drug suspension after 14 days): 260 thousands/cm^2
- Viable cells ([9]; day 28, drug suspension after 14 days): 240 thousands/cm^2
- Viable cells ([9]; day 35, drug suspension after 14 days): 190 thousands/cm^2
- RT Activity ([10]; day 2): 0.892 cpm/ml × 1000
- RT Activity ([10]; day 5): 0.589 cpm/ml × 1000
- RT Activity ([10]; day 9): 0.434 cpm/ml × 1000
- viral expression of RT ([10]; pre-infection treatment with 1 mM hydroxyurea): significantly reduced
- CD4+ T-cell population [11]: stabilized or increased
- cytotoxic effects ([12]; 0.1 mM hydroxyurea, continuous exposure, FIG. 1b): some cytotoxic effects
- toxicity ([12]; 1 mM hydroxyurea, activated PBL): toxic effects at these concentrations were observed early
- Viable cells ([12]; day 4): 500 thousands/ml
- Viable cells ([12]; day 7): 185 thousands/ml
- Viable cells ([12]; day 10): 87 thousands/ml
- Viable cells ([12]; day 14): 36 thousands/ml
- cytostatic and cytotoxic effects ([12]; decreased drug concentration, FIG. 1b): virtually disappeared
- effect on HIV-1 replication at the lowest levels [13]: stimulated HIV-1 replication
- HIV-1 replication ([13]; patient PBL, FIG. 3a): inhibited HIV-1 replication in a dose-dependent manner

Structure (SMILES): Nc1ncnc2c1ncn2[C@@H]1O[C@H](CO)C[C@@H]1F [2′-F-dd-ara-A]
- p24 Expression after Infection ([5]; nucleoside analog 20 μM, day 4): Low
- p24 Expression after Infection ([5]; nucleoside analog 20 μM, day 8): Medium
- p24 Expression after Infection [5, 15]: Medium

Structure (SMILES): O=c1[nH]cnc2c1ncn2[C@H]1CC[C@@H](CO)O1 [ddI, didanosine]
- cytotoxicity [14]: low
- p24 Expression after Infection ([5]; nucleoside analog 20 μM, day 4): Low
- p24 Expression after Infection ([5]; nucleoside analog 20 μM, day 8): Medium
- p24 Expression after Infection [5, 15]: Medium
- p24 after infection ([8]; ddI 0.2 μM, day 4): 4 ng/mL
- p24 after infection ([8]; ddI 0.2 μM, day 8): 116 ng/mL
- p24 after infection ([8]; ddI 0.2 μM, day 12): 197 ng/mL
- p24 after infection ([8]; ddI 1 μM, day 4): 3 ng/mL
- p24 after infection ([8]; ddI 1 μM, day 8): 90 ng/mL
- p24 after infection ([8]; ddI 1 μM, day 12): 196 ng/mL
- p24 after infection ([8]; ddI 5 μM, day 4): 1 ng/mL
- p24 after infection ([8]; ddI 5 μM, day 8): 58 ng/mL
- p24 after infection ([8]; ddI 5 μM, day 12): 125 ng/mL
- p24 after infection ([8]; ddI 20 μM, day 4): 1 ng/mL
- p24 after infection ([8]; ddI 20 μM, day 8): 25 ng/mL
- p24 after infection ([8]; ddI 20 μM, day 12): 51 ng/mL
- effect on HIV-1 replication at the lowest levels [13]: stimulated HIV-1 replication

Structure (SMILES): Nc1ncnc2c1ncn2[C@H]1C[C@H](O)[C@@H](COP(=O)(O)OP(=O)(O)OP(=O)(O)O)O1 [dATP]
- Km [1]: 2.6 µM

Structure (SMILES): Nc1nc2c(ncn2[C@@H]2O[C@H](CO)C[C@@H]2F)c(=O)[nH]1 [2′-F-dd-ara-G]
- p24 Expression after Infection ([5]; nucleoside analog 20 μM, day 4): Low
- p24 Expression after Infection ([5]; nucleoside analog 20 μM, day 8): Medium
- p24 Expression after Infection [5, 15]: Medium

Structure (SMILES): O=c1[nH]cnc2c1ncn2[C@@H]1O[C@H](CO)C[C@@H]1F [2′-F-dd-ara-I]
- p24 Expression after Infection ([5]; nucleoside analog 20 μM, day 4): Low
- p24 Expression after Infection ([5]; nucleoside analog 20 μM, day 8): Medium
- p24 Expression after Infection [5, 15]: Medium

Structure (SMILES): Nc1ccn([C@H]2C[C@H](O)[C@@H](COP(=O)(O)OP(=O)(O)OP(=O)(O)O)O2)c(=O)n1 [dCTP]
- Km [1]: 3.8 µM
